From PubChem BioAssay (NCI)
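Dose response: 5 concentrations. Exposure: 48 h. Format: 96-well plates. Endpoint: linear interpolation; highest concentration if not reached. GI50 marks 50% less growth. TGI: total growth inhibition.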

Key:
Experiment in all cases: NCI anticancer screen, dose series, 48 h
[1] = test system: CCRF-CEM leukemia
[2] = test system: U251 CNS
[3] = test system: TK-10 renal
[4] = test system: PC-3 prostate
[5] = test system: RXF 393 renal
[6] = test system: SK-OV-3 ovarian
[7] = test system: KM12 colon
[8] = test system: SK-MEL-28 melanoma
[9] = test system: OVCAR-8 ovarian
[10] = test system: CAKI-1 renal

| Structure (SMILES) | GI50 [1] [µM] | TGI [1] [µM] | GI50 [2] [µM] | TGI [2] [µM] | GI50 [3] [µM] | TGI [3] [µM] | GI50 [4] [µM] | TGI [4] [µM] | GI50 [5] [µM] | TGI [5] [µM] | GI50 [6] [µM] | TGI [6] [µM] | GI50 [7] [µM] | TGI [7] [µM] | GI50 [8] [µM] | TGI [8] [µM] | GI50 [9] [µM] | TGI [9] [µM] | GI50 [10] [µM] | TGI [10] [µM] |
| --- | --- | --- | --- | --- | --- | --- | --- | --- | --- | --- | --- | --- | --- | --- | --- | --- | --- | --- | --- | --- |
| O=C(CC1Sc2ccccc2NC1=O)NNc1ccc(F)cc1 (stereo unspecified) | > 100 | > 100 | > 100 | > 100 | > 100 | > 100 | 64.1 | > 100 | > 100 | > 100 | > 100 | > 100 | 25.2 | > 100 | > 100 | > 100 | 9.78 | > 100 | 42.5 | > 100 |
| COc1ccc2c(c1)C(=O)c1c-2n(CCCCl)c(=O)c2cc(N)ccc12 | > 44.5 | > 59.4 | > 51.6 | > 100 | > 82.5 | > 100 | > 72.8 | > 100 | > 57.3 | > 100 | > 100 | > 100 | 29.3 | > 100 | > 100 | > 100 | > 100 | > 100 | > 100 | > 100 |
| NS(=O)(=O)c1cc(C(=O)O)c(Cl)c([N+](=O)[O-])c1Cl | – | > 100 | – | > 100 | – | > 100 | – | > 100 | – | > 100 | – | > 100 | – | > 100 | – | > 100 | – | > 100 | – | > 100 |
| CN(C)C/C=C/C(=O)Nc1cc2c(Nc3cccc(Cl)c3F)ncnc2cc1OCCOC(F)F | 2.83 | 15.7 | 2.39 | 12.1 | < 0.01 | 1.3 | 2.38 | 13.6 | 0.566 | 2.71 | < 0.01 | 0.275 | 3.11 | 13.5 | 3.11 | 15.3 | 1.11 | 12.4 | < 0.01 | 1.65 |
| COC(=O)[C@H](CCCCNC(=O)OCc1ccccc1)NC(=O)[C@@H](NC(=O)Nc1cc(C(F)(F)F)cc(C(F)(F)F)c1)C(C)C | > 10 | > 10 | > 10 | > 10 | > 10 | > 10 | > 10 | > 10 | > 10 | > 10 | > 10 | > 10 | > 10 | > 10 | > 10 | > 10 | > 10 | > 10 | > 10 | > 10 |
| CC1(C)CN(CCNc2nccc(-c3c(-c4cccc(O)c4)nc4sccn34)n2)S(=O)(=O)N1 | 7.25 | > 33.2 | 8.78 | > 33.2 | > 22.6 | > 33.2 | 17.1 | > 33.2 | 3 | 21.6 | 7.86 | > 33.2 | 11.9 | > 33.2 | 0.268 | > 33.2 | 0.307 | > 33.2 | 6.12 | > 27.2 |
| O=C1c2ccccc2C(=O)c2sc(Nc3ccc([N+](=O)[O-])cc3)nc21 | – | 5.37 | – | 8.71 | – | 26.4 | – | 19.9 | – | 9.71 | – | 36.8 | – | 25.8 | – | 25.7 | – | 13.7 | – | 12 |
| CCN(CC)CCCC(C)Nc1ccnc(/C=C/c2ccc(Cl)cc2)c1 (stereo unspecified) | – | > 19.7 | – | 3.12 | – | 4.8 | – | 10.7 | 1.44 | 2.92 | – | 10.7 | – | 7.39 | – | 3.41 | – | 7.57 | – | 4.11 |
| CC1(C)CC[C@]2(CO)CC[C@]3(C)C(=CC[C@@H]4[C@@]5(C)CCNCC(C)(C)[C@@H]5CC[C@]43C)[C@@H]2C1 | 5.47 | 23.1 | 3.53 | 13.5 | 10.3 | 22.6 | 4.32 | 18.3 | 1.95 | 4.83 | 13.5 | 26.8 | 3.32 | 12.2 | 2.13 | 5.39 | 4.77 | 24.8 | 3.64 | 11.9 |
| CCC(=C(c1ccc(OCCN2CCCC2)cc1)c1ccc(OCCN2CCCC2)cc1)c1ccc(Cl)cc1 | 0.601 | 1.58 | 0.576 | 1.14 | 0.628 | 1.33 | 0.569 | 1.2 | 0.545 | 1.04 | 0.583 | 1.14 | 0.626 | 1.21 | 0.571 | 1.06 | 0.692 | 1.57 | 0.52 | 0.992 |
